Some test systems named below: SK-MEL-2; KM12; HOP-92; A549; HT-29; SF-539; MOLT-4; SK-MEL-28; MDA-MB-231; CAKI-1; OVCAR-4; M14; NCI/ADR-RES; MCF7; HCT-116; MDA-N; UO-31; MDA-MB-435; SK-MEL-5; SN12C.
Holding throughout (assay): NCI tumour cell line growth inhibition, 48 h

Each structure is given as a SMILES string.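 Exposure lasted 48 hours, with cells grown in 96-well plates and compounds tested at five concentrations. GI50 marks 50% less growth.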 Activity calls are given as the source filed them. No stated cut-off is given here; in the data, active = GI50 up to about 1.1 µM and inactive = higher.

In the case of `Clc1ccc(C2=CC(c3ccccc3)N3C(=N[C@H]4CCCC[C@@H]43)N2)cc1` (stereo partly specified), the GI50 in the assay on SK-MEL-2 is 13.6 µM (inactive); in the assay with KM12, 2.07 µM (inactive); in the assay on HOP-92 it was 4.68 µM (inactive); with A549, 5.47 µM (inactive); in the assay on HT-29, 2.39 µM (inactive); with SF-539 it was 6.08 µM (inactive). Besides, the GI50 in the assay with MOLT-4 is 2.64 µM (inactive); in the assay on SK-MEL-28, 2.79 µM (inactive); with MDA-MB-231 it was 9.08 µM (inactive); in the assay with CAKI-1, 13.9 µM (inactive); with OVCAR-4, 5.61 µM (inactive); in the assay with M14, 2.98 µM (inactive). In addition, the GI50 in the assay on NCI/ADR-RES is 4.35 µM (inactive); in the assay on MCF7, 3.55 µM (inactive); in the assay with HCT-116, 3.03 µM (inactive); in the assay with MDA-N it was 6.05 µM (inactive); in the assay on UO-31 it was 10.8 µM (inactive); with MDA-MB-435 it was 7.57 µM (inactive). In the assay on SK-MEL-5, the GI50 was 1.71 µM (inactive).

For the compound `CN(C)c1ccc(C2CC(c3ccc4ccccc4c3O)=NN2c2ccc([N+](=O)[O-])cc2[N+](=O)[O-])cc1` (stereo unspecified), the GI50 in the assay on SK-MEL-2 was 25.5 µM (inactive); with KM12 it was 24.4 µM (inactive); in the assay on HOP-92, > 100 µM (inactive); in the assay with A549, 32.3 µM (inactive); with HT-29 it was 39.4 µM (inactive); in the assay with SF-539, 50.9 µM (inactive). Further, the GI50 in the assay with MOLT-4 was 22.8 µM (inactive); with SK-MEL-28 it was 56 µM (inactive); in the assay on MDA-MB-231, 22 µM (inactive); with CAKI-1 it was > 100 µM (inactive); in the assay on OVCAR-4, > 100 µM (inactive); with M14, 63 µM (inactive). The GI50 in the assay on SN12C was 50.7 µM (inactive); in the assay with NCI/ADR-RES, 43.5 µM (inactive); with MCF7, 23.8 µM (inactive); in the assay on HCT-116, 37.5 µM (inactive); with MDA-N, 16.3 µM (inactive); in the assay with UO-31, 27.4 µM (inactive). Moreover, the GI50 in the assay on MDA-MB-435 is 17.5 µM (inactive).

As for `COC(=O)CCCC(=O)NC1=C(Nc2ccc(OC)cc2)C(=O)c2ccccc2C1=O`, the GI50 in the assay on SK-MEL-2 was 17.9 µM (inactive); with KM12, 28.8 µM (inactive); in the assay with HOP-92, 71 µM (inactive); with A549, 22.3 µM (inactive); in the assay with SF-539, 19.3 µM (inactive); in the assay with MOLT-4, 24.8 µM (inactive). Besides, the GI50 is 20.9 µM (inactive) with SK-MEL-28; 30.1 µM (inactive) in the assay on MDA-MB-231; 43.2 µM (inactive) with CAKI-1; 17.8 µM (inactive) with OVCAR-4; 19.4 µM (inactive) in the assay with M14; 27.7 µM (inactive) with SN12C. The GI50 was 21.9 µM (inactive) in the assay on NCI/ADR-RES; 17.1 µM (inactive) in the assay with MCF7; 19.7 µM (inactive) in the assay on HCT-116; 20.7 µM (inactive) with MDA-N; 46.2 µM (inactive) in the assay with UO-31; 18.2 µM (inactive) with MDA-MB-435.

Take `Cc1cc(OCc2nnc3n2N=C(c2cc(F)c(Cl)cc2Cl)/C(=C/c2ccc(Cl)cc2)S3)ccc1Cl`: the GI50 is 29 µM (inactive) in the assay on SK-MEL-2; 22.9 µM (inactive) in the assay with KM12; 18.1 µM (inactive) with HOP-92; 16.7 µM (inactive) with HT-29; 44.9 µM (inactive) with SF-539; 0.337 µM (active) in the assay with MOLT-4. Also, the GI50 in the assay on SK-MEL-28 was 19.8 µM (inactive); in the assay with MDA-MB-231, 29.7 µM (inactive); in the assay on CAKI-1, 18.6 µM (inactive); in the assay with OVCAR-4, 19.5 µM (inactive); in the assay with M14 it was 25 µM (inactive); with NCI/ADR-RES, 33.2 µM (inactive). Further, the GI50 was 23.3 µM (inactive) in the assay with MCF7; 12.8 µM (inactive) in the assay on HCT-116; 32.4 µM (inactive) with MDA-N; 27.5 µM (inactive) in the assay on UO-31; 24.2 µM (inactive) in the assay with MDA-MB-435; 17.9 µM (inactive) with SK-MEL-5.

`CC1(C)OC(=O)C(C#N)=C1C[n+]1ccccc1`: the GI50 with SK-MEL-2, with KM12, in the assay on HOP-92, in the assay on HT-29, with SF-539 and in the assay with MOLT-4 was > 10 µM (inactive) in each case. Besides, the GI50 in the assay on SK-MEL-28, in the assay on MDA-MB-231, in the assay on CAKI-1, in the assay on OVCAR-4, in the assay on M14 and in the assay on SN12C was > 10 µM (inactive) each time. In addition, the GI50 in the assay on NCI/ADR-RES, in the assay with MCF7, in the assay with MDA-N, in the assay on UO-31, in the assay with MDA-MB-435 and in the assay on SK-MEL-5 was > 10 µM (inactive) in each case.

Regarding `CN1Cc2ccccc2/C=C\c2ccccc21`, the GI50 is 25.4 µM (inactive) with SK-MEL-2; 52.4 µM (inactive) with KM12; 28 µM (inactive) with HOP-92; 50.1 µM (inactive) with A549; 28.1 µM (inactive) in the assay with HT-29; > 100 µM (inactive) in the assay with SF-539. The GI50 with SK-MEL-28 is > 100 µM (inactive); in the assay on MDA-MB-231 it was 96.2 µM (inactive); in the assay on CAKI-1, 40.9 µM (inactive); with OVCAR-4, 38.5 µM (inactive); with M14, 46.8 µM (inactive); with SN12C, 83.4 µM (inactive). Besides, the GI50 with NCI/ADR-RES is > 100 µM (inactive); with MCF7, 24.7 µM (inactive); with HCT-116, 78.2 µM (inactive); in the assay with MDA-N it was 42.2 µM (inactive); with UO-31, 80.2 µM (inactive); in the assay with MDA-MB-435 it was 39.8 µM (inactive). Also, in the assay with SK-MEL-5, the GI50 is 40.2 µM (inactive).

As to `O=C1Nc2nnc(S)n2NC12c1ccccc1-c1ccccc12`, the GI50 in the assay on SK-MEL-2, with HOP-92, in the assay with A549, in the assay on HT-29, with SF-539 and with SK-MEL-28 was > 100 µM (inactive) each time. Besides, the GI50 with MDA-MB-231 was > 100 µM (inactive); in the assay with CAKI-1, 57.3 µM (inactive); in the assay on OVCAR-4 it was 19.1 µM (inactive); in the assay on M14, 52 µM (inactive); with SN12C, > 100 µM (inactive); with NCI/ADR-RES it was > 100 µM (inactive). For the same compound, the GI50 in the assay on MCF7 is 33.2 µM (inactive); in the assay with HCT-116, 24.2 µM (inactive); with MDA-N, 34.5 µM (inactive); in the assay on UO-31, > 100 µM (inactive); with MDA-MB-435, 16.8 µM (inactive); in the assay on SK-MEL-5, > 100 µM (inactive).

Regarding `O=C(Nc1ccc(Cl)cc1Cl)c1cc2nc3ccccc3c(=O)n2c2ccccc12`, the GI50 in the assay with SK-MEL-2, in the assay with KM12, in the assay on HOP-92, in the assay on A549, in the assay on HT-29 and with SF-539 was > 10 µM (inactive) each time. Moreover, the GI50 in the assay with SK-MEL-28, in the assay on MDA-MB-231, in the assay on CAKI-1, in the assay on M14, in the assay on NCI/ADR-RES and in the assay with MCF7 was > 10 µM (inactive) throughout. Besides, the GI50 in the assay on HCT-116, with MDA-N, in the assay with UO-31, with MDA-MB-435 and with SK-MEL-5 was > 10 µM (inactive) each time.

The values are drawn from ChEMBL document CHEMBL1201862, “PubChem BioAssay data set” (2004).
